Data reported in US12275733B2, “Substituted pyrido[3,4-b]indoles for the treatment of cartilage disorders” (Sanofi, priority 2016, dated 2025).

System: ATDC5 cells
Assay: Chondrogenesis activity assay in ATDC5 cells (collagen type II induction, immunofluorescence)
Format: cell-based, mouse
Settings: Mus musculus; for EC50: collagen type II induction in ATDC5 cells, concentration reaching 50% of maximum induction; for Emax: maximum percent induction of collagen type II relative to internal reference compound at 10 μM, ATDC5 cells
Experimental: A) Chondrogenesis Activity Assay in ATDC5 Cells
The chondrogenic potential of the compounds of the invention was determined using clonal mouse chondrogenic ATDC5 cells (T. Atsumi et al., Cell Differ. Dev. 1990, 30, 109-116). ATDC5 cells are derived from mouse embryonic AT805 teratocarcinoma cells and are used frequently to study the multistep chondrogenic differentiation process from precursor cells into chondrocytes (C. Shukunami et al., Exp. Cell Res. 1998, 241, 1-11; H. Aklyami et al., J. Bone Miner. Res. 1996, 11, 22-28; H. Akiyami et al., Biochem. Biophys. Res. Commun. 1997, 235, 142-147; C. Shukunami et al., J. Cell Biol. 1996, 133, 457-468; C. Shukunami et al., J. Bone Miner. Res. 1997, 12, 1174-1188). Undifferentiated ATDC5 cells grow in vitro until confluence, showing a fibroblast-like morphology. In the presence of insulin, cells undergo transient condensation and form numerous nodular structures (cartilage nodules). The cartilagenous nature of these nodules was shown by Alcian Blue staining as evidence of the production of proteoglycan (aggrecan) and collagen type II expression (by expression analysis), both molecular markers of chondrocytes (C. Shukunami et al., J. Cell Biol. 1996, 133, 457-468).
Chondrogenic differentiation of ATDC5 cells into chondrocytes by the compounds of the invention was determined by measuring the induction of type II collagen protein as a marker of chondrocytes, a structural component of the extracellular matrix which constitutes more than 80% of cartilage mass (D. R. Eyre, Clin. Orthop. Relat. Res. 2004, 427 Suppl, S118-S122). ATDC5 cells were obtained from RIKEN and cultured as monolayer in basal culture medium (Dulbecco's Modified Eagle Medium/Nutrient Mixture F-12 (DMEM/F12, Invitrogen, #31331-093) supplemented with 10 μg/ml Transferrin (Roche, #10652 202001), 3×10E−8 M sodium seienite (Sigma, #S-5261) and 5% Fetal Calf Serum (FCS Gold, PAA, #A15-251)), at 37° C., and 5% CO2 in plastic flasks of 75 cm^2 or 300 cm^2 subconfluently for propagation. ATDC5 cells were harvested and resuspended in differentiation culture medium that consisted of basal culture medium complemented with 10 μg/ml insulin (Sigma, #19278), to initiate chondrogenic differentiation. For studying the effect of test compounds, the ATDC5 cells were plated in 96-well plates (3.0×10E4 cells per well in 200 μl of differentiation culture medium). Test compounds dissolved in DMSO were added to yield increasing compound concentrations, typically from 40 nM to 10 μM, and a final DMSO concentration of 0.1%. On each 96-well plate, control wells containing no test compound but the same concentration of DMSO, i.e. untreated cells, were included and used as reference for the determination of the effect of the test compounds on the cells, and wells containing an internal reference compound at a concentration of 10 μM were included and used as positive control and for standardizing the results. Cells in the wells were incubated for 4 days at 37° C., and 5% CO2, followed by quantification of intracellular collagen type II.
Quantification of collagen type II in the ATDC5-cells was done by immunofluorescence staining of collagen type II, and fluorescence intensity was measured using a cellular high content imaging system (ImageXpress, Molecular Device). For immunofluorescence staining of intracellular collagen, medium was removed after compound incubation and cells were fixed with 200 μl/well methanol/water (95%/5%). Cells were permeabilized in 200 μl/well phosphate-buffered saline (PBS) containing 0.2% Triton X100 for 15 min and, after removal of the solution, blocked for 30 min with 200 μl/well PBS/0.2% Triton X100 containing 1% bovine serum albumin (BSA) to avoid unspecific binding. After the blocking step, the solution was removed and collagen type II staining solution was added. […]

SMILES	EC50 [nM]	Emax [%]
Cc1nccc2c1[nH]c1c(-c3ccc(OCCn4cccn4)cc3)cc(Br)cc12 [Example 259, 6-Bromo-1-methyl-8-[4-(2-pyrazol-1-yl-ethoxy)-phenyl]-9H-pyrido[3,4-b]indole]	430	> 80
COc1ccc(-c2cc(C(=O)O)cc3c2[nH]c2c(C)nccc23)cc1 [Example 35, 8-(4-Methoxy-phenyl)-1-methyl-9H-pyrido[3,4-b]indole-6-carboxylic acid]	3100	> 80
COc1ccc(-c2cc(Cl)cc3c2[nH]c2c(C)nccc23)c(OC)c1 [Example 193, 6-Chloro-8-(2,4-dimethoxy-phenyl)-1-methyl-9H-pyrido[3,4-b]indole]	> 10000	20 to 50
Cc1nccc2c1[nH]c1c(-c3ccc(OCC(O)CN4CCCCC4)cc3)cc(Cl)cc12 (centres unmarked) [Example 229, 1-[4-(6-Chloro-1-methyl-9H-pyrido[3,4-b]indol-8-yl)-phenoxy]-3-piperidin-1-yl-propan-2-ol]	280	50 to 80
CCn1c2c(-c3cnn(Cc4ccccn4)c3)cc(Br)cc2c2ccnc(C)c21 [Example 261, 6-Bromo-9-ethyl-1-methyl-8-(1-pyridin-2-ylmethyl-1H-pyrazol-4-yl)-9H-pyrido[3,4-b]indole]	1500	> 80
COc1cc(-c2cc(Cl)cc3c2[nH]c2c(C)nccc23)ccc1OCc1ccccn1 [Example 221, 6-Chloro-8-[3-methoxy-4-(pyridin-2-ylmethoxy)-phenyl]-1-methyl-9H-pyrido[3,4-b]indole]	> 3300	20 to 50
FC(F)(F)Cn1c2cnccc2c2cc(Cl)cc(-c3cccnc3)c21 [Example 57, 6-Chloro-8-pyridin-3-yl-9-(2,2,2-trifluoro-ethyl)-9H-pyrido[3,4-b]indole]	1600	< 20
Cc1nccc2c1[nH]c1c(-c3cnc(N)nc3)cc(Cl)cc12 [Example 154, 5-(6-Chloro-1-methyl-9H-pyrido[3,4-b]indol-8-yl)-pyrimidin-2-ylamine]	8800	20 to 50
Cc1nccc2c1[nH]c1c(-c3ccc(OCC4(C)COC4)cc3)cc(Cl)cc12 [Example 182, 6-Chloro-1-methyl-8-[4-(3-methyl-oxetan-3-ylmethoxy)-phenyl]-9H-pyrido[3,4-b]indole]	220	> 80
Cc1nccc2c1[nH]c1c(-c3ccc(N4CCNC(=O)C4)nc3)cc(Cl)cc12 [Example 109, 4-[5-(6-Chloro-1-methyl-9H-pyrido[3,4-b]indol-8-yl)-pyridin-2-yl]-piperazin-2-one]	720	50 to 80
CCn1c2cnccc2c2cc(Cl)cc(-c3cccnc3Cl)c21 [Example 56, 6-Chloro-8-(2-chloro-pyridin-3-yl)-9-ethyl-9H-pyrido[3,4-b]indole]	460	20 to 50
COc1ccc(-c2cc(C)cc3c2[nH]c2c(C)nccc23)cc1 [Example 14, 8-(4-Methoxy-phenyl)-1,6-dimethyl-9H-pyrido[3,4-b]indole]	860	> 80
CCn1c2cnccc2c2cc(Cl)cc(-c3ccncc3)c21 [Example 123, 6-Chloro-9-ethyl-8-pyridin-4-yl-9H-pyrido[3,4-b]indole]	260	20 to 50
FC(F)(F)Cn1c2cnccc2c2cc(Cl)cc(-c3cnc(-c4ccccc4)s3)c21 [Example 170, 6-Chloro-8-(2-phenyl-thiazol-5-yl)-9-(2,2,2-trifluoro-ethyl)-9H-pyrido[3,4-b]indole]	> 10000	20 to 50
CCn1c2c(-c3ccc(OC)c(N)n3)cc(Cl)cc2c2ccnc(C)c21 [Example 17, 6-(6-Chloro-9-ethyl-1-methyl-9H-pyrido[3,4-b]indol-8-yl)-3-methoxy-pyridin-2-ylamine]	3600	> 80
CCn1c2c(-c3cnc4[nH]ccc4c3)cc(Cl)cc2c2ccnc(C)c21 [Example 92, 6-Chloro-9-ethyl-1-methyl-8-(1H-pyrrolo[2,3-b]pyridin-5-yl)-9H-pyrido[3,4-b]indole]	2500	> 80
CCn1c2c(-c3ccc(OC)cc3)cc(Cl)cc2c2ccnc(C)c21 [Example 147, 6-Chloro-9-ethyl-8-(4-methoxy-phenyl)-1-methyl-9H-pyrido[3,4-b]indole]	840	> 80
Cc1nccc2c3cc(Cl)cc(-c4ccc(N5CCCC5)nc4)c3n(CC3CC3)c12 [Example 50, 6-Chloro-9-cyclopropylmethyl-1-methyl-8-(6-pyrrolidin-1-ylpyridin-3-yl)-9H-pyrido[3,4-b]indole]	130	< 20
Cc1nccc2c3cc(Cl)cc(-c4ccc(N5CCN(C)CC5)nc4)c3n(CC3CC3)c12 [Example 51, 6-Chloro-9-cyclopropylmethyl-1-methyl-8-[6-(4-methyl-piperazin-1-yl)-pyridin-3-yl]-pyrido[3,4-b]indole]	> 10000	< 20
Cc1nccc2c1[nH]c1c(-c3ccc(C(O)c4ccccn4)cc3)cc(Cl)cc12 (centres unmarked) [Example 32, [4-(6-Chloro-1-methyl-9H-pyrido[3,4-b]indol-8-yl)-phenyl]-pyridin-2-yl-methanol]	370	50 to 80
CCc1cc2c([nH]c3c(-c4ccc(OC)cc4)cc(Br)cc32)c(C)n1 [Example 211, 6-Bromo-3-ethyl-8-(4-methoxy-phenyl)-1-methyl-9H-pyrido[3,4-b]indole]	> 3300	< 20
COc1ccc(-c2cc(Cl)cc3c2[nH]c2c(C)nccc23)c(C)n1 [Example 104, 6-Chloro-8-(6-methoxy-2-methyl-pyridin-3-yl)-1-methyl-9H-pyrido[3,4-b]indole]	3500	> 80
Nc1ncc(-c2cc(Cl)cc3c4ccncc4n(CC(F)(F)F)c23)cn1 [Example 132, 5-[6-Chloro-9-(2,2,2-trifluoro-ethyl)-9H-pyrido[3,4-b]indol-8-yl]-pyrimidin-2-ylamine]	4500	20 to 50
Cc1nccc2c1[nH]c1c(-c3cnn(Cc4cccnc4)c3)cc(Cl)cc12 [Example 115, 6-Chloro-1-methyl-8-(1-pyridin-3-ylmethyl-1H-pyrazol-4-yl)-9H-pyrido[3,4-b]indole]	490	> 80
Cc1nccc2c1[nH]c1c(-c3ccc(-n4ccccc4=O)nc3)cc(Cl)cc12 [Example 107, 5′-(6-Chloro-1-methyl-9H-pyrido[3,4-b]indol-8-yl)-[1,2′]bipyridinyl-2-one]	560	20 to 50
CCn1c2c(-c3ccc(Cl)nc3)cc(Cl)cc2c2ccnc(C)c21 [Example 79, 6-Chloro-8-(6-chloro-pyridin-3-yl)-9-ethyl-1-methyl-9H-pyrido[3,4-b]indole]	3900	> 80
CC(=O)OCCn1cc(-c2cc(Cl)cc3c4ccncc4n(CC(F)(F)F)c23)cn1 [Example 163, Acetic acid 2-(4-[6-chloro-9-(2,2,2-trifluoro-ethyl)-9H-pyrido[3,4-b]indol-8-yl]-pyrazol-1-yl)-ethyl ester]	690	> 80
FC(F)(F)Cn1c2cnccc2c2cc(Cl)cc(-c3cnn(CC4CC4)c3)c21 [Example 173, 6-Chloro-8-(1-cyclopropylmethyl-1H-pyrazol-4-yl)-9-(2,2,2-trifluoro-ethyl)-9H-pyrido[3,4-b]indole]	1900	> 80
